Reference: US20250305018A1, “SYNTHESIS OF GLYCOSYLATED HYDROXYTRYPTAMINE COMPOUNDS AND METHODS OF THEIR USE” (Cy Biopharma AG, priority 2022, published 2025)

Columns and labels:
[1] = Pharmacokinetic experiment in mice, plasma concentrations by LC-MS/MS; type: in vivo, C57Bl/6J mice; conditions: higher doses, oral, compared to psilocybin
Protocol: (§1) In a pharmacokinetic experiment in C57Bl/6J mice (3 animals per timepoint; schedule shown below) two example compounds, Cy1 (4-HO-EPT glycoside) and Cy2 (4-HO-DMT glycoside) were dosed at two different concentrations (20 mg/kg dose shown here) and the parent compounds and their de-glycosylated forms, 4-HO-EPT and psilocin (4-HO-DMT), respectively, were measured by LC-MS/MS in plasma and brain tissue samples. For comparison, psilocybin was dosed at 1.5 mg/kg orally and plasma and brain tissue concentrations of psilocin (4-HO-DMT) were measured. Samples were collected at four or five different timepoints (from 10-minutes post dosing up to 6-hours post dosing) following the test article administration.
(§2) Results are reported in ng/mL for the concentration in plasma and in ng/g tissue for the concentration measured in brain samples.
(§3) Results: The graphs in FIG. 35, FIG. 36, FIG. 37, and FIG. 38 display the time course of concentrations of compounds as indicated. For each time point the data for the individual animals are plotted.

[2] = Pharmacokinetic experiment in mice, brain tissue concentrations by LC-MS/MS; type: in vivo, C57Bl/6J mice; conditions: higher doses, oral, compared to psilocybin
Protocol: as §1, §2, §3

## CCCN(CC)CCc1c[nH]c2cccc(O[C@@H]3O[C@H](CO)[C@@H](O)[C@H](O)[C@H]3O)c12 [Cy1, 4-HO-EPT glycoside]
[1]
  period of exposure, plasma: extended
[2]
  period of exposure, brain: extended
